Results from US9290490B2 (Merck Sharp & Dohme Corp., priority 2011, dated 2016).
Where a name gives a salt, the structure may show the parent alone. Read-outs that look alike come from different tables or passages of the source.

What was measured:
[1] = target: recombinant human GST-Syk (Homo sapiens (Human), UniProt P43405); assay: Homogeneous Time-Resolved Fluorescence (HTRF) Assay for the Recombinant Human Syk Enzyme; type: biochemical; conditions: recombinant human GST-Syk 5 pM, ATP 25 μM
Method: Homogeneous Time-Resolved Fluorescence (HTRF) Assay for the Recombinant Human Syk Enzyme:
A recombinant GST-hSyk fusion protein was used to measure potency of compounds to inhibit human Syk activity. The recombinant human GST-Syk (Carna Biosciences #08-176) (5 pM final concentration) was incubated with various concentrations of the inhibitor diluted in DMSO (0.1% final concentration) for 10 minutes at room temperature in 15 mM Tris-HCl (pH 7.5), 0.01% tween 20, 2 mM DTT in 384 well plate format. To initiate the reaction the biotinylated substrate peptide (250 nM final concentration) that contains the phosphorylation site for Syk was added with magnesium (5 mM final concentration) and ATP (25 μM final concentration). Final volume of the reaction was 10 μL. Phosphorylation of the peptide was allowed to proceed for 45′ at room temperature. To quench the reaction and detect the phosphorylated product, 2 nM of a Europium-anti-phosphotyrosine antibody (Perkin Elmer #AD0161) and 70 nM SA-APC (Perkin-Elmer #CR130-100) were added together in 15 mM Tris pH 7.5, 40 mM EDTA, 0.01% Tween 20. Final volume of the quenching solution was 10 μL. The resulting HTRF signal was measured after 30 minutes on a EnVision (Perkin-Elmer) reader using a time-resolved fluorescence protocol. […] IC50 values are also provided for the following representative compounds: […]

PGD2 = conditions: intranasal, allergic rhinitis, phase I/II; cited from earlier work
[2] = allergic rhinitis, phase II; cited from earlier work
[3] = 10-dose titration, read-out: rhSyk
[4] = read-out: rhSyk Activity (IC50)

Row | SMILES | IC50 [1, 3] | IC50 [1, 4] | decrease in PGD2 (PGD2) | safety across a range of indicators (PGD2) | efficacy versus placebo [2]
1 | CC(O)(c1ncc(-c2cc(Nc3nccc(C(F)(F)F)n3)cc(C3CC3)c2)s1)[C@H]1CC[C@H](C(=O)O)CC1 (single isomer, unassigned) [Example 16, trans-4-{(1R or 1S)-[5-(3-cyclopropyl-5-{[4-(trifluoromethyl)pyrimidin-2-yl]amino}phenyl)-1,3-thiazol-2-yl]-1-hydroxyethyl}cyclohexanecarboxylic acid] | 1 nM | ≤ 100 nM |  |  | 
2 | Cc1cc(Nc2nccc(C(F)(F)F)n2)cc(-c2cnc(C(=O)C3CCC(=O)CC3(C)C)s2)c1 (racemic) [Example 11, N-(3-{2-[(2,2-dimethyl-4-oxocyclohexyl)carbonyl]-1,3-thiazol-5-yl}-5-methylphenyl)-4-(trifluoromethyl)pyrimidin-2-aminium trifluoroacetate] |  | 100 to 1000 nM |  |  | 
3 | Cc1cc(Nc2nccc(C)n2)cc(-c2cnc(CC3(O)CCC(C(=O)OC(C)(C)C)CC3)s2)c1 (single isomer, unassigned) [Example 5, Step 3 (trans isomer), tert-butyl trans-4-hydroxy-4-[(5-{3-methyl-5-[(4-methylpyrimidin-2-yl)amino]phenyl}-1,3-thiazol-2-yl)methyl]cyclohexanecarboxylate] | 318 nM | 100 to 1000 nM |  |  | 
4 | Cc1cc(Nc2nccc(C)n2)cc(-c2cnc(C[C@H]3CC[C@@H](C(=O)O)CC3)s2)c1 (single isomer, unassigned) [Example 13 (cis, faster eluting isomer), cis-4-[(5-{3-methyl-5-[(4-methylpyrimidin-2-yl)amino]phenyl}-1,3-thiazol-2-yl)methyl]cyclohexanecarboxylic acid] |  | ≤ 100 nM |  |  | 
5 | Cc1cc(Nc2nccc(C(F)(F)F)n2)cc(-c2cnc(C(C)(O)[C@H]3CC[C@H](c4nn[nH]n4)CC3)s2)c1 (single isomer, unassigned) [Example 6 (faster eluting enantiomer), 2-{[3-(2-{1-hydroxy-1-[trans-4-(2H-tetrazol-5-yl)cyclohexyl]ethyl}-1,3-thiazol-5-yl)-5-methylphenyl]amino}-4-(trifluoromethyl)pyrimidin-1-ium trifluoroacetate] |  | ≤ 100 nM |  |  | 
6 | Oc1cccc(Nc2ncc(F)c(Nc3cccc(O)c3)n2)c1 [Example R112] |  |  | statistically significant decrease | safe | lack of efficacy

The next lines start with results.

Row | IC50 [1, 3] | IC50 [1, 4] | SMILES | decrease in PGD2 (PGD2) | safety across a range of indicators (PGD2) | efficacy versus placebo [2]
7 | 3 nM | ≤ 100 nM | Cc1cc(Nc2nccc(C(F)(F)F)n2)cc(-c2cnc(C(N)[C@H]3CC[C@H](C(=O)O)CC3)s2)c1 (stereo partly shown) [Example 2-112] |  |  | 
8 | 1 nM | ≤ 100 nM | COC(C)(c1ncc(-c2cc(C)cc(Nc3nccc(C(F)(F)F)n3)c2)s1)[C@H]1CC[C@H](C(=O)O)CC1 (stereo partly shown) [Example 2-110] |  |  | 
9 | 1260 nM | 1000 to 10000 nM | CCCCC(=O)OC1CCC(C(C)(O)c2ncc(-c3cc(C)cc(Nc4nccc(C(F)(F)F)n4)c3)s2)CC1 (stereo not shown) [Example 2-3] |  |  | 
